Measured values as given in article PMC9246773, “Assessing the Activity of Antimicrobial Peptides Against Common Marine Bacteria Located in Rotifer (Brachionus plicatilis) Cultures” (Probiotics and Antimicrobial Proteins, 2022).
No end group written: not given here.

Assays:
Assay type in all cases: cell-based
bacterial isolates [1] = details: 48 h
Experimental: (§1) A range of bacterial species with the potential to be transferred to developing fish larvae as pathogens or probiotics were selected for use in the study (Table 2). Bacterial isolates were stored at −80 °C and thawed, and 25 µL of the isolates was spread onto marine salt agar (MSA) media. All isolates were incubated at 25 °C for 18 h to reach mid-log growth phase. All isolates were sub-cultured and identified using mass spectrometry (MALDI-TOF) using the BioTyper and MBT 8468 library (Bruker Pty Ltd). The isolate Tenacibaculum discolor was plated on Anacker and Oradal’s marine (AOM) media, incubated for 48 h and identified using the aforementioned method. Bacterial isolates were suspended in sterile saline (0.75% NaCl w/v) to 0.5 McFarland standard. […] The bacterial isolates T. discolor and Pseudoalteromonas sp. require marine salts to grow and were not added to MHB (0‰). The isolate T. discolor requires low nutrients to grow, therefore, a separate MHB (25‰) was prepared at a diluted ratio of 1 part MHB and 7 parts artificial seawater (25‰).
(§2) The protocol was followed to determine the minimum inhibitory concentration (MIC) of the selected peptides. Two MIC assays were performed, firstly to determine whether each peptide precipitated in MHB and thereby required acetic acid adjustments (supplementary materials) and secondly, to determine the antimicrobial activity of each peptide in artificial seawater (25‰). Peptide stock solutions (1.3 mg mL^−1) were made by diluting the peptides in sterile deionised water. MHB was made with deionised water to reach a concentration of approaching 0‰ and artificial sea salts (Sigma-Aldrich® S9883) to reach a salinity of 25‰.
Once the acetic acid requirement for each peptide was determined (Table 3), the antimicrobial activity of each peptide was tested at a salinity of 0‰ and 25‰ for all bacterial isolates. A stock solution for peptides that required acetic acid was prepared by a 1:2 dilution in acetic acid (0.02% acetic acid w/v, containing 0.4% BSA) solution. In a 96-well polypropylene microtitre plates (Costar® 3879), 100 µL of this peptide stock was added to the first well for each bacterial isolate tested and serially diluted twofold with acetic acid (0.01% acetic acid w/v, containing 0.2% BSA). From each well, 10 µL of each peptide concentration was added to the corresponding wells of a new 96-well microtitre plate. From each of the bacterial suspensions (0‰), 90 µL was added to each well. […] Twofold serial dilutions were made with MHB (0‰). From each of the bacterial suspensions (0‰), 50 µL was added to each well. The same method was followed for testing peptides in MHB at 25‰. All peptide concentrations ranged from 0.125 to 65 µg mL^−1, and the bacterial suspension in each well was approximately 5 × 10^5 CFU mL^−1. […]

Vibrio harveyi [2] = details: 48 h
Experimental: as §1, §2
(§3) Once the acetic acid requirement for each peptide was determined (Table 3), the antimicrobial activity of each peptide was tested at a salinity of 0‰ and 25‰ for all bacterial isolates. A stock solution for peptides that required acetic acid was prepared by a 1:2 dilution in acetic acid (0.02% acetic acid w/v, containing 0.4% BSA) solution. In a 96-well polypropylene microtitre plates (Costar® 3879), 100 µL of this peptide stock was added to the first well for each bacterial isolate tested and serially diluted twofold with acetic acid (0.01% acetic acid w/v, containing 0.2% BSA). From each well, 10 µL of each peptide concentration was added to the corresponding wells of a new 96-well microtitre plate. From each of the bacterial suspensions (0‰), 90 µL was added to each well. […] Twofold serial dilutions were made with MHB (0‰). From each of the bacterial suspensions (0‰), 50 µL was added to each well. The same method was followed for testing peptides in MHB at 25‰. All peptide concentrations ranged from 0.125 to 65 µg mL^−1, and the bacterial suspension in each well was approximately 5 × 10^5 CFU mL^−1. The different salinities were used to compare any differences in antimicrobial activity in 0‰ and 25‰ water. […] Each bacterium was trialled in duplicate.

[3] = system: Vibrio harveyi (ATCC 35084); details: ATCC 35084, 48 h
Experimental: as §1, §2, §3

bacterial isolates [4] = details: 48 h; remark: listed apart in the source
Experimental: as §1, §2, §3

Vibrio alginolyticus [5] = details: 48 h
Experimental: as §1, §2, §3

Vibrio rotiferianus [6] = details: 48 h
Experimental: as §1, §2, §3

Shewanella sp. [7] = details: 48 h
Experimental: as §1, §2, §3

Vibrio scophthalmi [8] = details: 48 h
Experimental: as §1, §2, §3

Tenacibaculum discolor = details: 48 h
Experimental: as §1, §2, §3

[9] = system: Escherichia coli (ATCC 25922); details: ATCC 25922, 48 h
Experimental: as §1, §2, §3

Pseudoalteromonas sp. = details: 48 h
Experimental: as §1, §2, §3

Vibrio harveyi [10] = details: 48 h; remark: listed apart in the source
Experimental: as §1, §2
(§4) A broth microdilution protocol was followed to test whether the AMPs precipitated in MHB. The isolates T. discolor and Pseudoalteromonas were excluded from this assay because they required marine salts for growth. The peptides HHC10 and HHC36 previously required acetic acid adjustments according to [63] and were not trialled in this assay. To test if peptides required acetic acid, each peptide was diluted 1:2 in acetic acid (0.02% acetic acid w/v, containing 0.4% BSA) solution. In a 96-well polypropylene microtitre plates (Costar® 3879), 100 µL of this peptide stock was added to the first well for each bacterial isolate tested and serially diluted 2-fold with acetic acid (0.01% acetic acid w/v, containing 0.2% BSA). From each well, 10 µL of each peptide concentration was added to the corresponding wells of a new 96-well microtitre plate. From each of the bacterial suspensions in MHB (0‰), 90 µL was added to each well. […] From each of the bacterial suspensions in MHB (0‰), 50 µL was added to each well. All peptide concentrations ranged from 0.125 - 65µg mL^-1 and the bacterial suspension in each well was approximately 5 × 10^5 CFU mL^-1. Antimicrobial peptides that have an MIC value two or more dilutions higher in the assay with no acetic acid, compared to the assay with acetic acid, require acetic acid adjustments. The 96-well plates were incubated at 25 °C and read at 24 and 48 hours. The MIC was visually determined using a Sensititre™ Vizion™ Digital MIC Viewing System (Thermo Scientific™), and the lowest AMP concentration that had no bacterial growth was recorded as the MIC after 48 hours. Each bacterium was trialled in duplicate.

[11] = system: Vibrio harveyi (ATCC 35084); details: ATCC 35084, 48 h; remark: listed apart in the source
Experimental: as §1, §2, §4

Vibrio alginolyticus [12] = details: 48 h; remark: listed apart in the source
Experimental: as §1, §2, §4

Vibrio rotiferianus [13] = details: 48 h; remark: listed apart in the source
Experimental: as §1, §2, §4

Shewanella sp. [14] = details: 48 h; remark: listed apart in the source
Experimental: as §1, §2, §4

Vibrio scophthalmi [15] = details: 48 h; remark: listed apart in the source
Experimental: as §1, §2, §4

[16] = system: Escherichia coli (ATCC 25922); details: ATCC 25922, 48 h; remark: listed apart in the source
Experimental: as §1, §2, §4

KRWWKWIRW-NH2 [HHC10]
MIC in low salt conditions (over the bacterial isolates) (bacterial isolates [1]): 1 to 10 µg/mL
MIC V. harveyi, salinity 0‰ (Vibrio harveyi [2]): 8.13 µg/mL
MIC V. harveyi, salinity 25‰ (Vibrio harveyi [2]): > 65 µg/mL
MIC V. harveyi ATCC 35084, salinity 0‰ [3]: 4.06 µg/mL
MIC V. harveyi ATCC 35084, salinity 25‰ [3]: > 65 µg/mL
MIC in artificial seawater (25‰) (over the bacterial isolates) (bacterial isolates [4]): > 65 µg/mL
MIC V. alginolyticus, salinity 0‰ (Vibrio alginolyticus [5]): 2.03 µg/mL
MIC V. alginolyticus, salinity 25‰ (Vibrio alginolyticus [5]): > 65 µg/mL
MIC V. rotiferianus, salinity 0‰ (Vibrio rotiferianus [6]): 2.03 µg/mL
MIC V. rotiferianus, salinity 25‰ (Vibrio rotiferianus [6]): > 65 µg/mL
MIC Shewanella sp., salinity 0‰ (Shewanella sp. [7]): 4.06 µg/mL
MIC Shewanella sp., salinity 25‰ (Shewanella sp. [7]): > 65 µg/mL
MIC V. scophthalmi, salinity 0‰ (Vibrio scophthalmi [8]): 2.03 µg/mL
MIC V. scophthalmi, salinity 25‰ (Vibrio scophthalmi [8]): > 65 µg/mL
MIC T. discolor, salinity 25‰ (Tenacibaculum discolor): > 65 µg/mL
MIC E. coli ATCC 25922, salinity 0‰ [9]: 4.06 µg/mL
MIC E. coli ATCC 25922, salinity 25‰ [9]: > 65 µg/mL
MIC Pseudoalteromonas sp., salinity 25‰ (Pseudoalteromonas sp.): > 65 µg/mL

ILVRWIRWRIQW-NH2 [Peptide 3002]
MIC V. harveyi, Acetic (Vibrio harveyi [10]): 4.06 µg/mL
MIC V. harveyi, No acetic (Vibrio harveyi [10]): 2.03 µg/mL
MIC V. harveyi ATCC 35084, Acetic [11]: 4.06 µg/mL
MIC V. harveyi ATCC 35084, No acetic [11]: 2.03 µg/mL
MIC V. alginolyticus, Acetic (Vibrio alginolyticus [12]): 4.06 µg/mL
MIC V. alginolyticus, No acetic (Vibrio alginolyticus [12]): 2.03 µg/mL
MIC V. rotiferianus, Acetic (Vibrio rotiferianus [13]): 4.06 µg/mL
MIC V. rotiferianus, No acetic (Vibrio rotiferianus [13]): 2.03 µg/mL
MIC Shewanella sp., Acetic (Shewanella sp. [14]): 8.13 µg/mL
MIC Shewanella sp., No acetic (Shewanella sp. [14]): 4.06 µg/mL
MIC V. scophthalmi, Acetic (Vibrio scophthalmi [15]): 1.02 µg/mL
MIC V. scophthalmi, No acetic (Vibrio scophthalmi [15]): 0.51 µg/mL
MIC E. coli ATCC 25922, Acetic [16]: 8.13 µg/mL
MIC E. coli ATCC 25922, No acetic [16]: 16.25 µg/mL
MIC in low salt conditions (over the bacterial isolates) (bacterial isolates [1]): 1 to 10 µg/mL
MIC V. harveyi, salinity 0‰ (Vibrio harveyi [2]): 8.13 µg/mL
MIC V. harveyi, salinity 25‰ (Vibrio harveyi [2]): > 65 µg/mL
MIC V. harveyi ATCC 35084, salinity 0‰ [3]: 8.13 µg/mL
MIC V. harveyi ATCC 35084, salinity 25‰ [3]: > 65 µg/mL
MIC V. alginolyticus, salinity 0‰ (Vibrio alginolyticus [5]): 8.13 µg/mL
MIC V. alginolyticus, salinity 25‰ (Vibrio alginolyticus [5]): > 65 µg/mL
MIC V. rotiferianus, salinity 0‰ (Vibrio rotiferianus [6]): 8.13 µg/mL
MIC V. rotiferianus, salinity 25‰ (Vibrio rotiferianus [6]): > 65 µg/mL
MIC Shewanella sp., salinity 0‰ (Shewanella sp. [7]): 8.13 µg/mL
MIC Shewanella sp., salinity 25‰ (Shewanella sp. [7]): > 65 µg/mL
MIC V. scophthalmi, salinity 0‰ (Vibrio scophthalmi [8]): 2.03 µg/mL
MIC V. scophthalmi, salinity 25‰ (Vibrio scophthalmi [8]): > 65 µg/mL
MIC T. discolor, salinity 25‰ (Tenacibaculum discolor): 32.5 µg/mL
MIC E. coli ATCC 25922, salinity 0‰ [9]: 65 µg/mL
MIC E. coli ATCC 25922, salinity 25‰ [9]: > 65 µg/mL
MIC Pseudoalteromonas sp., salinity 25‰ (Pseudoalteromonas sp.): 65 µg/mL
